Columns and labels:
Assay type in all cases: in vivo
[1] = tested on: Sogatella furcifera exhibiting drug resistance to fipronil; experiment: Soil irrigation test, Sogatella furcifera exhibiting drug resistance to fipronil; settings: drug resistant populations
Protocol: Test Example 19 Pest Control Test of Sogatella furcifera
(§1) A rice seedling in pot culture was subjected to soil irrigation treatment with a drug solution of the compound of the present invention at a predetermined concentration, which had been prepared so as to be a 10% acetone water. […] Thereafter, the larvae were left to stand in a thermostatic chamber (16 hours of light period-8 hours of dark period) at 25° C. […] The test was performed in duplicate.
(§2) Mortality of larvae(%)={number of dead larvae/(number of survived larvae+number of dead larvae)}×100
(§3) In addition, for the origin of test pests, bugs collected within the city of Odawara in 2010 as the drug resistant Sogatella furcifera, and bugs collected within the city of Chigasaki in 1970 and then successively reared indoors for a long time as the susceptible populations of Sogatella furcifera were used.

[2] = tested on: susceptible populations of Sogatella furcifera; experiment: Soil irrigation test, susceptible populations of Sogatella furcifera
Protocol: as §1, §2
Further, for comparison, the test against a populations of Sogatella furcifera which is highly susceptible to fipronil was performed by the same method as described above, and the results thereof are shown in Table 44.
as §3

[3] = tested on: Laodelphax striatella exhibiting drug resistance to fipronil; experiment: Soil irrigation test, Laodelphax striatella exhibiting drug resistance to fipronil; settings: drug resistant populations
Protocol: Test Example 20 Pest Control Test of Laodelphax striatella
as §1, §2
(§4) In addition, for the origin of test pests, bugs collected within the Kumamoto prefecture in 2006 as the drug resistant Laodelphax striatella, and bugs successively reared indoors for a long time as the susceptible populations of Laodelphax striatella were used.

[4] = tested on: susceptible populations of Laodelphax striatella; experiment: Soil irrigation test, susceptible populations of Laodelphax striatella
Protocol: as §1, §2
Further, for comparison, the test against a populations of Laodelphax striatella which is highly susceptible to fipronil was performed by the same method as described above, and the results thereof are shown in Table 45.
as §4

**Q.** For `N#Cc1nn(-c2c(Cl)cc(C(F)(F)F)cc2Cl)c(N)c1[S+]([O-])C(F)(F)F` (stereo not drawn) [Fipronil], which “Insecticidal effects against Sogatella furcifera (mortality of larvae %), Drug resistant populations six days after the treatment” value ([1]; Rate 0.01 mg/pot) is on record?
**A.** 40%

**Q.** And the “Insecticidal effects against Sogatella furcifera (mortality of larvae %), Drug resistant populations six days after the treatment” value ([1]; Rate 0.05 mg/pot)?
**A.** 90%

**Q.** And the “Insecticidal effects against Sogatella furcifera (mortality of larvae %), Susceptible populations six days after the treatment” value ([2]; Rate 0.005 mg/pot)?
**A.** 100%

**Q.** What about the “Insecticidal effects against Sogatella furcifera (mortality of larvae %), Susceptible populations six days after the treatment” value ([2]; Rate 0.01 mg/pot) of the same compound?
**A.** 100%

**Q.** And the “Insecticidal effects against Sogatella furcifera (mortality of larvae %), Susceptible populations six days after the treatment” value ([2]; Rate 0.01 mg/pot as printed in the last line (below 0.005))?
**A.** 78%

**Q.** What about the “Insecticidal effects against Laodelphax striatella (mortality of larvae %), Drug resistant populations six days after the treatment” value ([3]; Rate 0.02 mg/pot) of the same compound?
**A.** 76%

**Q.** What about the “Insecticidal effects against Laodelphax striatella (mortality of larvae %), Drug resistant populations six days after the treatment” value ([3]; Rate 0.05 mg/pot) of the same compound?
**A.** 90%

**Q.** And the “Insecticidal effects against Laodelphax striatella (mortality of larvae %), Susceptible populations six days after the treatment” value ([4]; Rate 0.005 mg/pot)?
**A.** 89%

**Q.** What about the “Insecticidal effects against Laodelphax striatella (mortality of larvae %), Susceptible populations six days after the treatment” value ([4]; Rate 0.01 mg/pot) of the same compound?
**A.** 100%
